In experiment [1] the test system is IFNα-stimulated STAT-dependent luciferase reporter in Kit225 T cells. The experiment is described as follows: Kit225 T cell assay, IFNα stimulated STAT-dependent luciferase reporter. Type of experiment: cell-based, human. In short, it runs like this: (§1)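 Stimulus was either 200 U/mL human recombinant IFNα or 20 ng/mL IL-23, applied for 5-6 h to reporter-bearing Kit225 T cells grown in RPMI/10% FBS. Luciferase expression then quantified by luminescent assay.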
On the technique in general: Reporter assays use an easily measured gene product as a stand-in for the process of interest.

In experiment [2] the target is T1, recombinantly expressed His-tagged protein corresponding to amino acids 575-869 of human Tyk2 (Homo sapiens, UniProt P29597).
T1 construct: corresponding to amino acids 575-869 of human Tyk2; made in house
The experiment is described as follows: Probe displacement assay (scintillation proximity, [3H] probe). As to conditions: 2.5 nM Tyk2 (575-869), 40 nM radiolabeled probe, 30 minutes at room temperature. Type of experiment: binding. On the procedure: The probe displacement assay is conducted as follows: In a […], test compounds along with recombinantly expressed His-tagged protein corresponding to amino acids 575-869 of human Tyk2 (sequence shown below) at 2.5 nM, 40 nM ((R)-N-(1-(3-(8-methyl-5-(methylamino)-8H-imidazo[4,5-d]thiazolo[5,4-b]pyridin-2-yl)phenyl)ethyl)-2-([^3H]methylsulfonyl)benzamide) (preparation described below) and 80 μg/mL Copper His-Tag scintillation proximity assay beads (Perkin Elmer, Catalog #RPNQ0095) in 50 mM HEPES, pH 7.5, containing 100 μg/mL bovine serum albumin and 5% DMSO were incubated for 30 minutes at room temperature. The amount of radiolabeled probe (preparation described below) bound to Tyk2 was then quantified by scintillation counting, and the inhibition by the test compound calculated by comparison to wells either with no inhibitor (0% inhibition) or without Tyk2 (100% inhibition).
Protein Sequence of recombinant Hig-tagged Tyk2 (575-869):
The preparation of radiolabeled probe, (R)-N-(1-(3-(8-methyl-5-(methylamino)-8H-imidazo[4,5-d]thiazolo[5,4-b]pyridin-2-yl)phenyl)ethyl)-2-([^3H]methylsulfonyl)benzamide, was performed as described below: […]
Background: SPA uses beads or plates that emit light when radiolabelled molecules are held near them.

Experiment [3] relates to IL-23-stimulated STAT-dependent luciferase reporter in Kit225 T cells. The experiment is described as follows: Kit225 T cell assay, IL-23 stimulated STAT-dependent luciferase reporter. It counts as cell-based, human. To be noted: Kit225 T cells, 20 ng/mL human recombinant IL-23, 5-6 hours, luciferase; read-out: IL23 (Kit225 T Cell Inhibition Data). The gist of the method: as §1

Where [4] appears, read: Kit225 T cells, 200 U/mL human recombinant IFNα, 5-6 hours, luciferase, read-out: IFNα (Kit225 T Cell Inhibition Data).

SMILES strings stand for the structures. Like-named read-outs stand apart in the source and are kept apart here.

T1 sequence (P29597 575-869): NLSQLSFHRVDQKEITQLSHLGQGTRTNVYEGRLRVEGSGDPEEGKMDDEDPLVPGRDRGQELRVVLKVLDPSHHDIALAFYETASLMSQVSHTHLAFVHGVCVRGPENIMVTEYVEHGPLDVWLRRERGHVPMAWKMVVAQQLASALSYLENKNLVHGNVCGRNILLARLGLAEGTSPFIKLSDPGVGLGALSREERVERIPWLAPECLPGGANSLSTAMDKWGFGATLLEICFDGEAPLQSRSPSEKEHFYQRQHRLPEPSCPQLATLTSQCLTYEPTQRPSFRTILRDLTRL

Turning to `CNC(=O)c1cnc(Nc2ccc3ccccc3n2)cc1Nc1ccccc1S(C)(=O)=O` [Example 2], the IC50 turned out to be 30 nM in experiment [1] (setting [4]) and 57.4 nM in experiment [3]. Moreover, in experiment [2], the EC50 (in general, the concentration at which the effect is half-maximal) amounted to 13.2 nM.

Regarding `CNC(=O)c1cnc(Nc2cncc(C)n2)cc1Nc1ccccc1S(C)(=O)=O` [Example 42], the IC50 stood at 140 nM in experiment [1] (setting [4]) and 260 nM in experiment [3]. In experiment [2], the EC50 stood at 8.2 nM.

For `CNC(=O)c1cnc(Nc2cc(C#N)ccn2)cc1Nc1ccc(S(C)(=O)=O)cc1OC` [Example 43], the figures for the IC50 in experiment [1] (setting [4]) and in experiment [3] were 870 nM and 173 nM, respectively. Also, the EC50 in experiment [2] was 68.7 nM.

For the compound `CNC(=O)c1cnc(Nc2ccc(S(C)(=O)=O)cn2)cc1Nc1ccccc1S(C)(=O)=O` [Example 61], the IC50 was 1030 nM in experiment [1] (setting [4]) and 3530 nM in experiment [3]. Also, in experiment [2], the EC50 came to 16.4 nM.

Regarding `CNC(=O)c1cnc(Nc2ccc(F)cn2)cc1Nc1ccccc1[S+](C)[O-]` (centres unmarked) [Example 62], the IC50 in experiment [1] (setting [4]) turned out to be 1290 nM; in experiment [3], 898 nM. Besides, the EC50 in experiment [2] is 84.5 nM.

Turning to `CNC(=O)c1cnc(Nc2ccc(F)cn2)cc1Nc1ccccc1CCO` [Example 66], the IC50 in experiment [1] (setting [4]) was found to be 3170 nM; in experiment [3], 1770 nM. Besides, the EC50 in experiment [2] is 14.8 nM.

For `CNC(=O)c1cnc(Nc2cccc(OC)n2)cc1Nc1ccccc1C(N)=O` [Example 73], the IC50 in experiment [1] (setting [4]) amounted to 290 nM; in experiment [3] it was 506 nM. Besides, in experiment [2], the EC50 was 12 nM.

Turning to `CNC(=O)c1cnc(Nc2ccc(CO)cn2)cc1Nc1ccccc1C(N)=O` [Example 79], the IC50 was determined as 1850 nM in experiment [1] (setting [4]) and 4100 nM in experiment [3]. For the same compound, the EC50 in experiment [2] amounted to 5.5 nM.

For the compound `CNC(=O)c1cnc(Nc2ccc(Cl)cn2)cc1Nc1ccccc1C(N)=O` [Example 80], the IC50 was 460 nM in experiment [1] (setting [4]) and 320 nM in experiment [3]. Further, the EC50 in experiment [2] amounted to 4.4 nM.

In the case of `CNC(=O)c1cnc(Nc2ccc(O)cn2)cc1Nc1ccccc1C(N)=O` [Example 81], the IC50 in experiment [1] (setting [4]) turned out to be 4490 nM; in experiment [3] it was 5580 nM. For the same compound, in experiment [2], the concentration for a half-maximal effect (EC50) amounted to 22.7 nM.

For the compound `CNC(=O)c1cnc(Nc2ccc3ccccc3n2)cc1Nc1ccccc1C(N)=O` [Example 87], the IC50 came out at 160 nM in experiment [1] (setting [4]) and 257 nM in experiment [3]. Further, the EC50 in experiment [2] stood at 3.8 nM.

For `CNC(=O)c1cnc(Nc2cc(CO)ccn2)cc1Nc1ccccc1C(N)=O` [Example 94], the IC50 was found to be 3430 nM in experiment [1] (setting [4]) and 3560 nM in experiment [3]. The EC50 in experiment [2] was 9.5 nM.

Consider `CNC(=O)c1cnc(Nc2ccc(N3CCOCC3)cn2)cc1Nc1ccc(Cl)cc1OC` [Example 104], for which the IC50 in experiment [1] (setting [4]) turned out to be 50 nM; in experiment [3] it was 246 nM. Also, the EC50 in experiment [2] worked out at 17.7 nM.

For `CNC(=O)c1cnc(Nc2ccc(N3CCCC3=O)cn2)cc1Nc1ccc(Cl)cc1OC` [Example 107], the IC50 is 120 nM in experiment [1] (setting [4]) and 189 nM in experiment [3]. Moreover, the concentration giving a half-maximal response (EC50) in experiment [2] is 32.4 nM.

Consider `CCc1cccc(Nc2cc(Nc3ccc(Cl)cc3OC)c(C(=O)NC)cn2)n1` [Example 125], for which the IC50 in experiment [1] (setting [4]) came to 9970 nM; in experiment [3], 9680 nM. Also, the 50% effective concentration (EC50) in experiment [2] amounted to 436 nM.

For `CNC(=O)c1cnc(Nc2ccc(C)cn2)cc1Nc1cc(F)cc(F)c1OC` [Example 128], the IC50 came to 140 nM in experiment [1] (setting [4]) and 335 nM in experiment [3]. The EC50 in experiment [2] came out at 21.3 nM.

Take `CNC(=O)c1cnc(Nc2cc(C#N)ccn2)cc1Nc1cc(F)cc(F)c1OC` [Example 134]: the IC50 in experiment [1] (setting [4]) was 130 nM; in experiment [3] it was 314 nM. The EC50 in experiment [2] was found to be 9.9 nM.

For `CNC(=O)c1cnc(Nc2cc(Cl)ccn2)cc1Nc1cc(F)cc(F)c1OC` [Example 144], the IC50 in experiment [1] (setting [4]) was 230 nM; in experiment [3] it was 517 nM. Moreover, the EC50 in experiment [2] came out at 46.1 nM.

`CNC(=O)c1cnc(Nc2ccc(C#N)c(C)n2)cc1Nc1ccc(F)cc1OC` [Example 152]: the IC50 in experiment [1] (setting [4]) was found to be 370 nM; in experiment [3], 499 nM. Also, in experiment [2], the EC50 amounted to 40.6 nM.

In the case of `CNC(=O)c1cnc(Nc2cccc(-n3ccccc3=O)n2)cc1Nc1ccc(F)cc1OC` [Example 165], the results for the IC50 in experiment [1] (setting [4]) and in experiment [3] were 6650 nM and 10700 nM, respectively. The EC50 in experiment [2] was found to be 779 nM.

`CNC(=O)c1cnc(Nc2cc(C#N)ccn2)cc1Nc1cccc(F)c1C(N)=O` [Example 176]: the results for the IC50 in experiment [1] (setting [4]) and in experiment [3] were 1020 nM and 1040 nM, respectively. Further, the half-maximal effective concentration (EC50) in experiment [2] is 18.8 nM.

With `CNC(=O)c1cnc(Nc2ccc(F)cn2)cc1Nc1cccc2ccccc12` [Example 188], the IC50 in experiment [1] (setting [4]) was determined as 6470 nM; in experiment [3] it was 4300 nM. Further, the EC50 in experiment [2] amounted to 557 nM.

As for `CNC(=O)c1cnc(Nc2ccc(F)cn2)cc1Nc1ccc(-c2ccccc2)cc1` [Example 194], the IC50 in experiment [1] (setting [4]) stood at 8660 nM; in experiment [3], 3220 nM. Also, the EC50 in experiment [2] was found to be 349 nM.

Turning to `CNC(=O)c1cnc(Nc2ccc(F)cn2)cc1Nc1cc(Cl)ccc1OC` [Example 203], the IC50 was 1170 nM in experiment [1] (setting [4]) and 1460 nM in experiment [3]. The EC50 in experiment [2] amounted to 53.5 nM.

Regarding `CNC(=O)c1cnc(Nc2ccc(F)cn2)cc1Nc1cc(F)cc(F)c1OC` [Example 205], the values for the IC50 in experiment [1] (setting [4]) and in experiment [3] were 180 nM and 372 nM, respectively. In addition, the EC50 in experiment [2] is 25.1 nM.

With `CNC(=O)c1cnc(Nc2ccc(F)cn2)cc1Nc1ccc(N2CCOCC2)cc1` [Example 211], the IC50 in experiment [1] (setting [4]) was determined as 3150 nM; in experiment [3] it was 4270 nM. The EC50 in experiment [2] is 246 nM.

Consider `CNC(=O)c1cnc(Nc2ccc(N3CCOCC3)cn2)cc1Nc1ccccc1C` [Example 217], for which the IC50 in experiment [1] (setting [4]) stood at 1480 nM; in experiment [3], 3310 nM. For the same compound, the EC50 in experiment [2] is 291 nM.

As for `CNC(=O)c1cnc(Nc2ccc(N3CCOCC3)cn2)cc1Nc1ccccc1CCO` [Example 224], the IC50 stood at 4600 nM in experiment [1] (setting [4]) and 5610 nM in experiment [3]. For the same compound, the EC50 in experiment [2] turned out to be 597 nM.

Consider `CNC(=O)c1cnc(Nc2ccc(N3CCOCC3)cn2)cc1Nc1ccccc1SC` [Example 226], for which the results for the IC50 in experiment [1] (setting [4]) and in experiment [3] were 140 nM and 151 nM, respectively. Also, in experiment [2], the EC50 was 20.1 nM.

For the compound `CNC(=O)c1cnc(Nc2ccc(N3CCOCC3)cn2)cc1Nc1ccccc1OC(F)F` [Example 228], the values for the IC50 in experiment [1] (setting [4]) and in experiment [3] were 140 nM and 144 nM, respectively. Further, the 50% effective concentration (EC50) in experiment [2] was 36.7 nM.

On to `CNC(=O)c1ccc(Nc2cc(Nc3ccc(F)cn3)ncc2C(=O)NC)c(OC)c1` [Example 237], for which the IC50 was 460 nM in experiment [1] (setting [4]) and 470 nM in experiment [3]. For the same compound, the concentration giving a half-maximal response (EC50) in experiment [2] is 29.1 nM.

Regarding `CNC(=O)c1cnc(Nc2ccc(F)cn2)cc1Nc1ccc(C(=O)NCCO)cc1OC` [Example 238], the IC50 was determined as 2360 nM in experiment [1] (setting [4]) and 4250 nM in experiment [3]. For the same compound, the EC50 in experiment [2] turned out to be 6.3 nM.

As to `CNC(=O)c1cnc(Nc2ccc(C(=O)NC3CC3)cn2)cc1Nc1ccc(Cl)cc1OC` [Example 261], the IC50 was 1370 nM in experiment [1] (setting [4]) and 2180 nM in experiment [3]. Also, in experiment [2], the EC50 worked out at 155 nM.

Take `CNC(=O)c1cnc(Nc2cc(C(=O)NCCOC)ccn2)cc1Nc1cc(F)cc(F)c1OC` [Example 266]: the IC50 in experiment [1] (setting [4]) was 160 nM; in experiment [3], 312 nM. Further, the EC50 in experiment [2] was 6.5 nM.

Turning to `CNC(=O)c1cnc(Nc2ccc3ccccc3n2)cc1NC1CCCC1` [Example 283], the IC50 in experiment [1] (Homo sapiens, KIT225, read-out: IFNα (Kit225 T Cell Inhibition Data)) amounted to 12500 nM. Also, in experiment [2], the half-maximal effective concentration (EC50) came out at 633 nM.

Regarding `CNC(=O)c1cnc(Nc2ccc3ccccc3n2)cc1N[C@@H]1CCCC[C@@H]1C(N)=O` [Example 286], the IC50 in experiment [1] (setting [4]) amounted to 1980 nM; in experiment [3], 4220 nM. For the same compound, in experiment [2], the EC50 was 106 nM.

The values are drawn from patent US9315494B2, “Alkyl-amide-substituted pyridyl compounds useful as modulators of IL-12, IL-23 and/or IFNα responses” (Bristol-Myers Squibb Company, priority 2012, dated 2016).
